# Active and inactive are the calls of the source. The calls are words filed in the database; no cut-off is given here.
# Legend:
# Ileum [1] = assay: Inhibition of acetylcholine-induced contraction in guinea pig ileum at 0.1 uM treated for 15 mins prior to acetylcholine challenge; assay type: functional, tissue-based; details: Cavia porcellus
# [2] = target: Histamine H1 receptor (Cavia porcellus) (UniProt P31389); assay: Antagonist activity at histamine H1 receptor in guinea pig ileum assessed as inhibition of histamine-induced contraction at 0.1 uM treated for 15 mins prior to histamine challenge; assay type: tissue-based
# Chain of Histamine H1 receptor (Cavia porcellus) (P31389 whole entry): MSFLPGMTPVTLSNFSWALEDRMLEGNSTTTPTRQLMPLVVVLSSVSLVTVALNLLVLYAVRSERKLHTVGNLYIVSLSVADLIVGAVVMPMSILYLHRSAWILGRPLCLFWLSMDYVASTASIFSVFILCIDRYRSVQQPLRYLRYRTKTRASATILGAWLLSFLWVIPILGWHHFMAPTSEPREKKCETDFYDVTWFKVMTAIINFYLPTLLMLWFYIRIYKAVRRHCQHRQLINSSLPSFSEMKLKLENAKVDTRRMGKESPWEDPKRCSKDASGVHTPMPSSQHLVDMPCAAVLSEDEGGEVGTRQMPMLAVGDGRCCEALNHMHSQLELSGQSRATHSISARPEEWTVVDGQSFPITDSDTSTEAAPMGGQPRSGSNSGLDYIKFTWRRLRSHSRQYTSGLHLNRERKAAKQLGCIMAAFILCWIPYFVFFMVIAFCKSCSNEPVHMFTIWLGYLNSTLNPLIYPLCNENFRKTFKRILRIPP
# Ileum [3] = assay: Inhibition of barium chloride-induced contraction in guinea pig ileum at 5 uM; assay type: functional; details: Cavia porcellus
# [4] = target: Histamine H1 receptor (Cavia porcellus) (UniProt P31389); assay: Antagonist activity at histamine H1 receptor in guinea pig ileum assessed as inhibition of histamine-induced contraction treated for 15 mins prior to histamine challenge; assay type: tissue-based
# Ileum [5] = assay: Inhibition of acetylcholine-induced contraction in guinea pig ileum treated for 15 mins prior to acetylcholine challenge; assay type: functional; details: Cavia porcellus, read-out: ED50 (the source's name)
# [6] = target: Histamine N-methyltransferase (Cavia porcellus, UniProt Q9EST2); assay: Inhibition of histamine N-methyltransferase in guinea pig brain using S-adenosyl-L-methionine-14C as substrate by scintillation spectrophotometer
# Chain of Histamine N-methyltransferase (Q9EST2 whole entry): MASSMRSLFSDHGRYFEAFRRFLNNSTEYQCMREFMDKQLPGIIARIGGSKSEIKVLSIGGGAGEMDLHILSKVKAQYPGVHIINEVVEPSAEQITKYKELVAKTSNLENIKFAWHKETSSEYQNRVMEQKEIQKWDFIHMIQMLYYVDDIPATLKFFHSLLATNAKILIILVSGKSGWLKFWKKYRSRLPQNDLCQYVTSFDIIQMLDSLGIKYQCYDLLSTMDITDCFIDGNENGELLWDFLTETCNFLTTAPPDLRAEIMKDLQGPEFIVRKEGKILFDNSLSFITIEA
# Ileum [7] = assay: Inhibition of barium chloride-induced contraction in guinea pig ileum at 2 uM; assay type: functional; details: Cavia porcellus
# [8] = target: Histamine H1 receptor (Cavia porcellus) (UniProt P31389); assay: Antagonist activity at histamine H1 receptor in guinea pig ileum assessed as inhibition of histamine-induced contraction at 50 nM treated for 15 mins prior to histamine challenge; assay type: tissue-based
# [9] = target: Histamine H1 receptor (Cavia porcellus) (UniProt P31389); assay: Antagonist activity at histamine H1 receptor in guinea pig ileum assessed as inhibition of histamine-induced contraction at 10 nM treated for 15 mins prior to histamine challenge; assay type: tissue-based
ED50 [4],EC50 (Ileum [5]),Ki [6],SMILES,other results
–,–,–,CN(C)CCN(Cc1ccccc1)c1ccccn1,inhibition (Ileum [1]): inactive; inhibition [2]: 66%
6.72 µM,2.9 µM,247 µM,CN(C)[C@H]1CC[C@H](c2ccccc2)N(Cc2ccccc2)C1 (relative stereo),inhibition at 5 µM (Ileum [3]): 39%
1.83 µM,1.45 µM,31.6 µM,CN(C)[C@@H]1CC[C@H](c2ccccc2)N(Cc2ccccc2)C1 (relative stereo),inhibition at 2 µM (Ileum [7]): 50%
–,–,–,CN(C)[C@@H]1C[C@H](c2ccccc2)N(c2ccccc2)C1 (relative stereo),inhibition [8]: 45%
–,–,–,CN(C)[C@H]1C[C@H](c2ccccc2)N(c2ccccc2)C1 (relative stereo),inhibition [9]: 85%

# — ChEMBL document CHEMBL3272227, “Conformationally restricted analogs of histamine H1 receptor antagonists: trans and cis-1-benzyl-3-dimethylamino-6-phenylpiperidine” (J Med Chem, 1976)
